The source of these data is patent publication US20200002283A1, “PYRAZOLE DERIVATIVES HAVING ACTIVITY AGAINST PAIN” (priority 2016, published 2020).

pKi: −log10 of the molar value. Read-outs that look alike come from different tables or passages of the source.

For assay [1], the target named is T1, human μ-opioid receptor (Homo sapiens, UniProt P35372).
T1 construct: expressed in transfected cells; host or cells: CHO-K1
Put plainly: Human μ-opioid receptor radioligand assay ([3H]-DAMGO). The class given is binding. Here is the method:
Human μ-Opioid Receptor Radioligand Assay
To investigate binding properties of test compounds to human μ-opioid receptor, transfected CHO-K1 cell membranes and [^3H]-DAMGO (Perkin Elmer, ES-542-C), as the radioligand, were used. The assay was carried out with 20 μg of membrane suspension, 1 nM of [^3H]-DAMGO in either absence or presence of either buffer or 10 μM Naloxone for total and non-specific binding, respectively. Binding buffer contained Tris-HCl 50 mM, MgCl2 5 mM at pH 7.4. Plates were incubated at 27° C. for 60 minutes. After the incubation period, the reaction mix was then transferred to MultiScreen HTS, FC plates (Millipore), filtered and plates were washed 3 times with ice-cold 10 mM Tris-HCL (pH 7.4). Filters were dried and counted at approximately 40% efficiency in a MicroBeta scintillation counter (Perkin-Elmer) using EcoScint liquid scintillation cocktail.

Assay [2] addresses Human α2δ-1 subunit of Cav2.2 calcium channel (Homo sapiens, UniProt P54289). Put plainly: Human α2δ-1 subunit of Cav2.2 calcium channel assay ([3H]-Gabapentin binding). Here is the method: Human α2δ-1 Subunit of Cav2.2 Calcium Channel Assay
Human α2δ-1 enriched membranes (2.5 μg) were incubated with 15 nM of radiolabeled [3H]-Gabapentin in assay buffer containing Hepes-KOH 10 mM, pH 7.4. NSB (non specific binding) was measured by adding 10 μM pregabalin. After 60 min incubation at 27° C., binding reaction was terminated by filtering through Multiscreen GF/C (Millipore) presoaked in 0.5% polyethyleneimine in Vacuum Manifold Station, followed by 3 washes with ice-cold filtration buffer containing 50 mM Tris-HCl, pH 7.4. Filter plates were dried at 60° C. for 1 hour and 30 μl of scintillation cocktail were added to each well before radioactivity reading. Readings were performed in a Trilux 1450 Microbeta radioactive counter (Perkin Elmer).

Setting [3] is: transfected CHO-K1 cell membranes, 1 nM [3H]-DAMGO, read-out: μ binding.
The mark [4] stands for this setting: human α2δ-1 enriched membranes, 15 nM [3H]-Gabapentin, read-out: α2δ-1 binding.

Chain of Human α2δ-1 subunit of Cav2.2 calcium channel (P54289 25-1103): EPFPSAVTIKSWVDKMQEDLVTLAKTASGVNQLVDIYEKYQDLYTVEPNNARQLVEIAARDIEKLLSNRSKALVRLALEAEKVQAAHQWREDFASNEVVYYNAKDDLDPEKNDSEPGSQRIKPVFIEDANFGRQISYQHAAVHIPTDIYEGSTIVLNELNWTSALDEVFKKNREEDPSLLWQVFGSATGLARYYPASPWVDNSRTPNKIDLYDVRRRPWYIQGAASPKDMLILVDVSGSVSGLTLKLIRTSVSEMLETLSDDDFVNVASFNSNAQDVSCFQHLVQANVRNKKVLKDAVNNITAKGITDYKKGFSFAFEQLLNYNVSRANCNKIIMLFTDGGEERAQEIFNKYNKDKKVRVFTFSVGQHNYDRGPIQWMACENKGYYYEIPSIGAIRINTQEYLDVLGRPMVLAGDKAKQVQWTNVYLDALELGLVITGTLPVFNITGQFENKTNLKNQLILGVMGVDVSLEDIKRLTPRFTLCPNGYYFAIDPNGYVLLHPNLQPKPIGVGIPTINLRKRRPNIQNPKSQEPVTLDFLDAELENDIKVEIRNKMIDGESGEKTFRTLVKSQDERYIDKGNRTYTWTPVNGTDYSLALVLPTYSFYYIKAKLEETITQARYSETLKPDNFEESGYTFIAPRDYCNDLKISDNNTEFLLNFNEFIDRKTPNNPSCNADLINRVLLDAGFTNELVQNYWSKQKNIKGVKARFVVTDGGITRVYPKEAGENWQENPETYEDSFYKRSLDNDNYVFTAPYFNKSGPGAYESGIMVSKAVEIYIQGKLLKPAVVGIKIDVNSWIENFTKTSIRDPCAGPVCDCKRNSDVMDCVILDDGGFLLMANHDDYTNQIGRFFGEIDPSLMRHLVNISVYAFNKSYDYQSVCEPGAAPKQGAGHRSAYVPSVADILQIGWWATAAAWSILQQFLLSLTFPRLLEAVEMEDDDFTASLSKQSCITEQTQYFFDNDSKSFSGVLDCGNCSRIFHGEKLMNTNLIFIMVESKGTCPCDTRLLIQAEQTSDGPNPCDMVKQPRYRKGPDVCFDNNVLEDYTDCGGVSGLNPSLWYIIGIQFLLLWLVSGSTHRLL
T1 sequence (P35372 whole entry): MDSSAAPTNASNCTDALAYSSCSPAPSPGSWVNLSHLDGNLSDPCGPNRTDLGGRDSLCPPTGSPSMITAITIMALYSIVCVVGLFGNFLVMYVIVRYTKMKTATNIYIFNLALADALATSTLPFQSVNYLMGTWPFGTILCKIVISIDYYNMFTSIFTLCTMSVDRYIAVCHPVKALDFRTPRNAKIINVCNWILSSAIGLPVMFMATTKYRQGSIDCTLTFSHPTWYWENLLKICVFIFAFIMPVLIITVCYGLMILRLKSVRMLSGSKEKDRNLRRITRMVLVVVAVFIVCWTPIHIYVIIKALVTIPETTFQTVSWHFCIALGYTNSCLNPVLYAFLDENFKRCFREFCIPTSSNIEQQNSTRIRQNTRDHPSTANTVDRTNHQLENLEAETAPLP

As to `NCc1cc(Cc2ccc(O)cc2)n(-c2ccc(Cl)cc2Cl)n1` [Example 38, 4-{[3-(Aminomethyl)-1-(2,4-dichlorophenyl)-1H-pyrazol-5-yl]methyl}phenol], the figures for the pKi in assay [1] and in assay [2] were greater than 7.00 and 5.52 to 6.30, respectively.

As for `NCc1cc(Cc2ccccc2)n(-c2ccc(Cl)cc2Cl)n1` [Example 9, [5-Benzyl-1-(2,4-dichlorophenyl)-1H-pyrazol-3-yl]methanamine], the pKi is less than 6.30 in assay [1] (setting [3]) and 5.52 to 6.30 in assay [2] (setting [4]).

Turning to `NCc1cc(Cc2ccc(O)cc2)n(Cc2ccc(Cl)cc2Cl)n1` [Example 48], the pKi in assay [1] (setting [3]) is less than 6.30; in assay [2] (setting [4]), 5.52 to 6.30.

Regarding `COc1ccc(Cc2cc(CN)nn2-c2ccc(Cl)cc2Cl)cc1` [Example 1, [1-(2,4-Dichlorophenyl)-5-(4-methoxybenzyl)-1H-pyrazol-3yl]methanamine], the pKi is 6.30 to 7.00 in assay [1] and greater than 6.30 in assay [2].

Regarding `CC(C)(N)c1cc(Cc2ccc(O)c(F)c2)n(-c2ccc(Cl)cc2Cl)n1` [Example 56, 4-{[3-(2-Aminopropan-2-yl)-1-(2,4-dichlorophenyl)-1H-pyrazol-5-yl]methyl}-2-fluorophenol], the values for the pKi in assay [1] and in assay [2] were greater than 7.00 and 5.30 to 5.52, respectively.

For `COc1ccc(-n2nc([C@H](C)N)cc2Cc2ccc(O)cc2)c(Cl)c1` [Example 70, (S)-4-{[3-(1-Aminoethyl)-1-(2-chloro-4-methoxyphenyl)-1H-pyrazol-5-yl]methyl}phenol], the results for the pKi in assay [1] and in assay [2] were 6.30 to 7.00 and greater than 6.30, respectively.

With `NC(CC(=O)O)c1cc(Cc2ccc(O)cc2)n(-c2ccc(Cl)cc2Cl)n1` (stereo not shown) [Example 76, 3-Amino-3-[1-(2,4-dichlorophenyl)-5-(4-hydroxybenzyl)-1H-pyrazol-3-yl]propanoic acid], the pKi in assay [1] is 6.30 to 7.00; in assay [2], less than 5.30.

Consider `C[C@H](N)c1cc(Cc2ccc(O)cc2)n(-c2ccc(Cl)cc2Cl)n1` [Example 61, (S)-4-{[3-(1-Aminoethyl)-1-(2,4-dichlorophenyl)-1H-pyrazol-5-yl]methyl}phenol], for which the pKi in assay [1] is greater than 7.00; in assay [2] it was greater than 6.30.

For the compound `NC(CN1CCOCC1)c1cc(Cc2ccc(O)cc2)n(-c2ccc(Cl)cc2Cl)n1` (stereo not shown) [Example 73, 4-{[3-(1-Amino-2-morpholinoethyl)-1-(2,4-dichlorophenyl)-1H-pyrazol-5-yl]methyl}phenol], the figures for the pKi in assay [1] (setting [3]) and in assay [2] (setting [4]) were less than 6.30 and less than 5.30, respectively.

For the compound `COc1ccc(Cc2cc(CN)nn2-c2ccc(F)cc2Cl)cc1` [Example 5, [1-(2-Chloro-4-fluorophenyl)-5-(4-methoxybenzyl)-1H-pyrazol-3-yl]methanamine], the pKi in assay [1] (setting [3]) was less than 6.30; in assay [2] (setting [4]), 5.52 to 6.30.

Turning to `NCc1cc(Cc2ccc(O)cc2)n(-c2ccccc2Cl)n1` [Example 39, 4-{[3-(Aminomethyl)-1-(2-chlorophenyl)-1H-pyrazol-5-yl]methyl}phenol], the pKi in assay [1] (setting [3]) is less than 6.30; in assay [2] (setting [4]), 5.52 to 6.30.
